# Assay results reported in patent publication US11952365B2, “Anti-viral compounds” (Aligos Therapeutics, Inc., priority 2020, dated 2024).
# Where two headings read alike, the source gives them in different places.
# What was measured:
# 3CLpro = 3CLpro (Severe acute respiratory syndrome coronavirus 2, UniProt P0DTD1); assay: SARS-CoV-2 3CLpro protease assay (duplex, SAMDI-MS); format: biochemical; design: For the duplex assay, 3CLpro and HRV3C was added; details: 3CLpro, 30 mins preincubation, class symbols; read-out: SARS-Cov-2 IC50
# human cathepsin L = target: T1, human cathepsin L (Homo sapiens, UniProt P07711); assay: cathepsin L assay; format: biochemical; details: 10 pM human cathepsin L, Z-FR-AMC 2 μM, class symbols
# T1 construct: purchased R&D Systems
# In short: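 Reactions began by adding 2 μM (final) Z-FR-AMC substrate to 10 pM human cathepsin L that had been preincubated 30 min with inhibitor. Kinetic AMC fluorescence at 355/460 nm over 30 min at 2-min intervals; four-parameter fitting gave IC50 values.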
# HRV3C = HRV3C (Human rhinovirus 14, UniProt P03303); assay: HRV3C protease assay (duplex, SAMDI-MS); format: biochemical, HRV; details: 30 mins preincubation
# In short: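 Compounds are preincubated 30 min with the protease pair before substrate addition, and cleavage proceeds 30 min at room temperature. Product peptides are measured by SAMDI-MS relative to internal standards, with IC50 obtained from a four-parameter fit.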
# [1] = tested on: human beta-coronavirus OC43; assay: microbe, parasite or virus in culture; format: cell-based; details: OC43 in HeLa cells, 6 days at 33° C., class symbols, read-out: EC50
# HeLa cells = assay: Cytotoxicity plates without OC43 virus (cell-titer-glo); format: cell-based, human; details: class symbols
# In short: (§1)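 Run as a virus-free counterpart of the OC43 cytopathic-effect assay. Attached HeLa cells received compound dilutions in EMEM with 2% FBS and were kept 6 days at 33 °C. Cell viability was then measured by CellTiter-Glo luminescence.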
# [2] = tested on: SARS-CoV-2-GHB-03021/2020; assay: microbe, parasite or virus in culture; format: cell-based; details: read-out: VeroE6 + CP (EC50)
# in vitro [3] = details: human
# [4] = tested on: SARS-CoV-2-GHB-03021/2020; assay: SARS-CoV-2 Infection Model in Huh7 Cells; format: cell-based; details: Severe acute respiratory syndrome coronavirus 2, Huh-7, 96 h, SARS-CoV-2, day 4 p.i., MTS
# in vitro [5] = details: African green monkey, VeroE6 + CP (CC50), Vero E6-eGFP cells with CP-100356, absence of virus, MTS
# [6] = Cytotoxicity plates without OC43 virus (cell-titer-glo); format: cell-based, human; details: human; HeLa cells without OC43 virus, class symbols
# In short: as §1
# Vero E6-eGFP cells = details: read-out: VeroE6 + CP (CC50); Vero E6-eGFP cells with CP-100356, absence of virus, MTS; numeric bounds
# [7] = HRV3C, bound, read-out: HRV IC50
# [8] = Severe acute respiratory syndrome coronavirus 2, Vero C1008, 96 h
# [9] = Betacoronavirus 1, OC43, HeLa, 144 h
# [10] = HRV3C, class symbols, read-out: HRV IC50
Molecule,IC50 (3CLpro),IC50 (human cathepsin L),IC50 (HRV3C; [7]),EC50 [1],CC50 (HeLa cells),"EC50 [2, 8]",CC50 (in vitro [3]),EC50 ([4]; class symbols),"EC50 [1, 9]",CC50 (in vitro [5]; numeric bounds),CC50 at 6 days [6],IC50 (HRV3C; [10]),EC50 ([4]; numeric bounds),CC50 (in vitro [5]; class symbols),"IC50 (HRV3C; HRV IC50, HRV3C, class symbols)",EC50 [2],CC50 (Vero E6-eGFP cells)
COc1cccc2[nH]c(C(=O)N3Cc4ccccc4[C@H]3C(=O)N[C@@H](C[C@@H]3CCCNC3=O)C(=O)CO)cc12 [Compound 73_1],0.02 to 0.2 µM,≥ 10 µM,> 10 µM,0.1 to 1 µM,> 10 µM,,,,,,,,,,,,
COc1cccc2[nH]c(C(=O)N3Cc4ccccc4[C@@H]3C(=O)N[C@@H](C[C@@H]3CCCNC3=O)C(=O)CO)cc12 [Compound 73_2],2 to 20 µM,≥ 10 µM,> 10 µM,10 to 100 µM,> 10 µM,,,,,,,,,,,,
"O=C1NCC[C@H]1C[C@H](NC(=O)[C@@H]1[C@H]2CCC[C@H]2CN1C(=O)c1cc2c(Cl)cc(C(F)(F)F)cc2[nH]1)C(=O)CO [Compound 161, (1S,3aR,6aS)-2-[4-chloro-6-(trifluoromethyl)-1H-indole-2-carbonyl]-N-[(2S)-4-hydroxy-3-oxo-1-[(3S)-2-oxopyrrolidin-3-yl]butan-2-yl]-hexahydro-1H-cyclopenta[c]pyrrole-1-carboxamide]",0.02 to 0.2 µM,≥ 10 µM,> 10 µM,,,1 to 10 µM,> 10 µM,< 1 µM,< 0.1 µM,> 50 µM,> 10 µM,,,,,,
"O=C1NCC[C@H]1C[C@H](NC(=O)[C@@H]1[C@H]2CCC[C@H]2CN1C(=O)c1cc2c(Cl)cc(F)c(Cl)c2[nH]1)C(=O)CO [Compound 162, (1S,3aR,6aS)-2-(4,7-dichloro-6-fluoro-1H-indole-2-carbonyl)-N-[(2S)-4-hydroxy-3-oxo-1-[(3S)-2-oxopyrrolidin-3-yl]butan-2-yl]-hexahydro-1H-cyclopenta[c]pyrrole-1-carboxamide]",< 0.02 µM,≥ 10 µM,,,,< 1 µM,> 50 µM,< 1 µM,< 0.1 µM,> 50 µM,> 10 µM,2 to 20 µM,,,,,
"COc1cc(C(F)(F)F)cc2[nH]c(C(=O)N3C[C@@H]4CCC[C@@H]4[C@H]3C(=O)N[C@@H](C[C@@H]3CCNC3=O)C(=O)CO)cc12 [Compound 163, (1S,3aR,6aS)—N—((S)-4-hydroxy-3-oxo-1-((S)-2-oxopyrrolidin-3-yl)butan-2-yl)-2-(4-methoxy-6-(trifluoromethyl)-1H-indole-2-carbonyl)octahydrocyclopenta[c]pyrrole-1-carboxamide]",< 0.02 µM,≥ 10 µM,,,,1 to 10 µM,> 50 µM,1 to 10 µM,< 0.1 µM,> 50 µM,> 10 µM,2 to 20 µM,,,,,
O=C(NC1CC1)C(=O)[C@H](C[C@@H]1CCNC1=O)NC(=O)[C@@H]1CC2(CCN1C(=O)c1cc3c(F)cccc3[nH]1)CC2 [Compound 164],< 0.02 µM,1 to 10 µM,,,,10 to 100 µM,1 to 10 µM,,1 to 10 µM,> 50 µM,> 10 µM,0.2 to 2 µM,> 10 µM,,,,
O=C(NC1CC1)C(=O)[C@H](C[C@@H]1CCNC1=O)NC(=O)[C@@H]1CC2(CCN1C(=O)c1cc3ccccc3s1)CC2 [Compound 165],0.02 to 0.2 µM,1 to 10 µM,,,,< 1 µM,> 10 µM,< 1 µM,0.1 to 1 µM,> 50 µM,> 10 µM,0.2 to 2 µM,,,,,
O=C(NCCOC1CCCC1)C(=O)[C@H](C[C@@H]1CCNC1=O)NC(=O)[C@@H]1[C@H]2CCC[C@H]2CN1C(=O)c1cc2c(Cl)cc(Cl)cc2[nH]1 [Compound 166],< 0.02 µM,1 to 10 µM,> 10 µM,,,< 1 µM,1 to 10 µM,< 1 µM,0.1 to 1 µM,,> 10 µM,,,> 10 µM,,,
"N#C[C@H](C[C@@H]1CCNC1=O)NC(=O)[C@@H]1[C@H]2CCC[C@H]2CN1C(=O)c1cc2c(Cl)ccc(Cl)c2[nH]1 [Compound 167, (1S,3aR,6aS)—N-[(1S)-1-cyano-2-[(3S)-2-oxopyrrolidin-3-yl]ethyl]-2-(4,7-dichloro-1H-indole-2-carbonyl)-hexahydro-1H-cyclopenta[c]pyrrole-1-carboxamide]",0.2 to 2 µM,≥ 10 µM,> 10 µM,,,< 1 µM,> 10 µM,< 1 µM,0.1 to 1 µM,> 50 µM,> 10 µM,,,,,,
"O=C1NCC[C@H]1C[C@H](NC(=O)[C@@H]1[C@H]2CCC[C@H]2CN1C(=O)c1cc2c(Cl)ccc(-c3ccccc3)c2[nH]1)C(=O)CO [Compound 168, (1S,3aR,6aS)-2-(4-chloro-7-phenyl-1H-indole-2-carbonyl)-N-[(2S)-4-hydroxy-3-oxo-1-[(3S)-2-oxopyrrolidin-3-yl]butan-2-yl]-hexahydro-1H-cyclopenta[c]pyrrole-1-carboxamide]",0.2 to 2 µM,≥ 10 µM,> 10 µM,,,1 to 10 µM,> 10 µM,1 to 10 µM,1 to 10 µM,> 50 µM,> 10 µM,,,,,,
Cc1cccc2[nH]c(C(=O)N3CCC4(CC4)C[C@H]3C(=O)N[C@@H](C[C@@H]3CCNC3=O)C(=O)C(=O)NC3CC3)cc12 [Compound 169],0.02 to 0.2 µM,1 to 10 µM,,,,1 to 10 µM,> 10 µM,1 to 10 µM,1 to 10 µM,> 50 µM,> 10 µM,0.2 to 2 µM,,,,,
O=C(NC1CC1)C(=O)[C@H](C[C@@H]1CCNC1=O)NC(=O)[C@@H]1CC2(CCN1C(=O)c1cc3c(C(F)(F)F)cccc3[nH]1)CC2 [Compound 170],0.02 to 0.2 µM,0.1 to 1 µM,,,,10 to 100 µM,> 10 µM,1 to 10 µM,1 to 10 µM,> 50 µM,> 10 µM,0.2 to 2 µM,,,,,
COc1ccc2[nH]c(C(=O)N3CCC4(CC4)C[C@H]3C(=O)N[C@@H](C[C@@H]3CCNC3=O)C(=O)C(=O)NC3CC3)cc2c1 [Compound 171],0.02 to 0.2 µM,≥ 10 µM,,,,1 to 10 µM,> 10 µM,1 to 10 µM,1 to 10 µM,> 50 µM,> 10 µM,,,,2 to 20 µM,,
Cn1c(C(=O)N2CCC3(CC3)C[C@H]2C(=O)N[C@@H](C[C@@H]2CCNC2=O)C(=O)C(=O)NC2CC2)cc2ccccc21 [Compound 172],< 0.02 µM,1 to 10 µM,,,,< 1 µM,> 10 µM,< 1 µM,1 to 10 µM,> 50 µM,> 10 µM,2 to 20 µM,,,,,
CC(C)OCCNC(=O)C(=O)[C@H](C[C@@H]1CCNC1=O)NC(=O)[C@@H]1[C@H]2CCC[C@H]2CN1C(=O)c1cc2c(Cl)cc(Cl)cc2[nH]1 [Compound 173],0.02 to 0.2 µM,≥ 10 µM,> 10 µM,,,< 1 µM,1 to 10 µM,1 to 10 µM,0.1 to 1 µM,> 50 µM,> 10 µM,,,,,,
O=C(NCCOCC1CCCC1)C(=O)[C@H](C[C@@H]1CCNC1=O)NC(=O)[C@@H]1[C@H]2CCC[C@H]2CN1C(=O)c1cc2c(Cl)cc(Cl)cc2[nH]1 [Compound 174],0.02 to 0.2 µM,1 to 10 µM,,,,< 1 µM,1 to 10 µM,< 1 µM,0.1 to 1 µM,,> 10 µM,2 to 20 µM,,1 to 10 µM,,,
N-benzyl-3-[[(2S)-1-(1H-indole-2-carbonyl)pyrrolidin-2-yl]formamido]-2-oxo-4-[(3S)-2-oxopyrrolidin-3-yl]butanamide [Compound 3],20 to 100 µM,,,10 to 100 µM,> 10 µM,,,,,,,2 to 20 µM,,,,> 100 µM,> 100 µM
